In PubChem BioAssay AID2060599 (Molecular Pharmacology Branch, DTP, NCI, 2025):
One block for each compound: values may come before it.

Test system: 817829-284-R-J1-PDC complex spheroids, viability
Test: Anticancer human tumor 817829-284-R-J1-PDC patient-derived colon adenocarcinoma cell line growth inhibition [CLK]
Conditions: for viability, T/C: stronger effect = lower value
Summary of the method: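 Multi-cell-type spheroids combined patient-derived tumor cells with HUVEC endothelial cells and human mesenchymal stem cells. Paired agents were dosed in half-log steps down from about clinical Cmax, or from 10 microM where Cmax was unknown.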

[1] = curve of first compound, second compound 0.0316 µM
[2] = curve of first compound, second compound 0.1 µM
[3] = curve of first compound, second compound 0.316 µM
[4] = curve of first compound, second compound 1 µM
[5] = curve of first compound, second compound 3.16 µM
[6] = curve of first compound, second compound 10 µM
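Also: spheroids exposed to the agents for seven days before readout.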

IC50 (curve of compound): < 31.6 nM
Compound: COc1cccc2c1C(=O)c1c(O)c3c(c(O)c1C2=O)CC(O)(C(=O)CO)CC3OC1CC(N)C(O)C(C)O1 (stereo unspecified)
viability, T/C (compound 0.0316 µM): 20.5%
viability, T/C (compound 0.1 µM): 16.4%
viability, T/C (compound 0.316 µM): 4.21%
viability, T/C (compound 1 µM): 0.22%
viability, T/C (compound 3.16 µM): 0.3%
viability, T/C (compound 10 µM): 0.85%

IC50 [1]: < 31.6 nM
IC50 [2]: < 31.6 nM
IC50 [3]: < 31.6 nM
IC50 [4]: < 31.6 nM
IC50 [5]: < 31.6 nM
IC50 [6]: < 31.6 nM
Compound: O=c1[nH]cc(F)c(=O)[nH]1 + CNC(=O)c1ccc(Nc2nc(OC3CCCC3)c3c(-c4ccc5nc(C)oc5c4)c[nH]c3n2)c(OC)c1
viability, T/C (second compound 0.0316 µM, first compound 0.0316 µM): 37.3%
viability, T/C (second compound 0.0316 µM, first compound 0.1 µM): 39.1%
viability, T/C (second compound 0.0316 µM, first compound 0.316 µM): 24.6%
viability, T/C (second compound 0.0316 µM, first compound 1 µM): 38.4%
viability, T/C (second compound 0.0316 µM, first compound 3.16 µM): 29.1%
viability, T/C (second compound 0.0316 µM, first compound 10 µM): 22.6%
viability, T/C (second compound 0.1 µM, first compound 0.0316 µM): 19.2%
viability, T/C (second compound 0.1 µM, first compound 0.1 µM): 24%
viability, T/C (second compound 0.1 µM, first compound 0.316 µM): 22.7%
viability, T/C (second compound 0.1 µM, first compound 1 µM): 22.6%
viability, T/C (second compound 0.1 µM, first compound 3.16 µM): 18.5%
viability, T/C (second compound 0.1 µM, first compound 10 µM): 17.6%
viability, T/C (second compound 0.316 µM, first compound 0.0316 µM): 17.6%
viability, T/C (second compound 0.316 µM, first compound 0.1 µM): 26.6%
viability, T/C (second compound 0.316 µM, first compound 0.316 µM): 17.4%
viability, T/C (second compound 0.316 µM, first compound 1 µM): 23.1%
viability, T/C (second compound 0.316 µM, first compound 3.16 µM): 15%
viability, T/C (second compound 0.316 µM, first compound 10 µM): 12.6%
viability, T/C (second compound 1 µM, first compound 0.0316 µM): 17.2%
viability, T/C (second compound 1 µM, first compound 0.1 µM): 16.8%
viability, T/C (second compound 1 µM, first compound 0.316 µM): 16.9%
viability, T/C (second compound 1 µM, first compound 1 µM): 11.3%
viability, T/C (second compound 1 µM, first compound 3.16 µM): 13.3%
viability, T/C (second compound 1 µM, first compound 10 µM): 7%
viability, T/C (second compound 3.16 µM, first compound 0.0316 µM): 18.9%
viability, T/C (second compound 3.16 µM, first compound 0.1 µM): 20.1%
viability, T/C (second compound 3.16 µM, first compound 0.316 µM): 13.6%
viability, T/C (second compound 3.16 µM, first compound 1 µM): 14.7%
viability, T/C (second compound 3.16 µM, first compound 3.16 µM): 10.8%
viability, T/C (second compound 3.16 µM, first compound 10 µM): 7.07%
viability, T/C (second compound 10 µM, first compound 0.0316 µM): 20.7%
viability, T/C (second compound 10 µM, first compound 0.1 µM): 22.1%
viability, T/C (second compound 10 µM, first compound 0.316 µM): 17.8%
viability, T/C (second compound 10 µM, first compound 1 µM): 11.7%
viability, T/C (second compound 10 µM, first compound 3.16 µM): 7.79%
viability, T/C (second compound 10 µM, first compound 10 µM): 7.22%

Compound: C=CC(=O)Nc1cc(Nc2nccc(-c3cn(C)c4ccccc34)n2)c(OC)cc1N(C)CCN(C)C + CN1CCN(c2cc(C(=O)Nc3cc4cc(-c5cnn(C)c5)ccc4cn3)ccn2)CC1
IC50 [1]: > 300 nM
IC50 [2]: < 0.949 nM
IC50 [3]: < 0.949 nM
IC50 [4]: < 0.949 nM
IC50 [5]: < 0.949 nM
IC50 [6]: < 0.949 nM
viability, T/C (second compound 0.0316 µM, first compound 0.000949 µM): 51.7%
viability, T/C (second compound 0.0316 µM, first compound 0.003 µM): 48.2%
viability, T/C (second compound 0.0316 µM, first compound 0.00949 µM): 57.6%
viability, T/C (second compound 0.0316 µM, first compound 0.03 µM): 58.5%
viability, T/C (second compound 0.0316 µM, first compound 0.0949 µM): 67.9%
viability, T/C (second compound 0.0316 µM, first compound 0.3 µM): 41.1%
viability, T/C (second compound 0.1 µM, first compound 0.000949 µM): 16.4%
viability, T/C (second compound 0.1 µM, first compound 0.003 µM): 17.8%
viability, T/C (second compound 0.1 µM, first compound 0.00949 µM): 16.3%
viability, T/C (second compound 0.1 µM, first compound 0.03 µM): 19.6%
viability, T/C (second compound 0.1 µM, first compound 0.0949 µM): 14.4%
viability, T/C (second compound 0.1 µM, first compound 0.3 µM): 10.9%
viability, T/C (second compound 0.316 µM, first compound 0.000949 µM): 1.39%
viability, T/C (second compound 0.316 µM, first compound 0.003 µM): 1.52%
viability, T/C (second compound 0.316 µM, first compound 0.00949 µM): 1.82%
viability, T/C (second compound 0.316 µM, first compound 0.03 µM): 1.58%
viability, T/C (second compound 0.316 µM, first compound 0.0949 µM): 1.13%
viability, T/C (second compound 0.316 µM, first compound 0.3 µM): 0.72%
viability, T/C (second compound 1 µM, first compound 0.000949 µM): 0.08%
viability, T/C (second compound 1 µM, first compound 0.003 µM): 0.12%
viability, T/C (second compound 1 µM, first compound 0.00949 µM): 0.1%
viability, T/C (second compound 1 µM, first compound 0.03 µM): 0.09%
viability, T/C (second compound 1 µM, first compound 0.0949 µM): 0.17%
viability, T/C (second compound 1 µM, first compound 0.3 µM): 0.09%
viability, T/C (second compound 3.16 µM, first compound 0.000949 µM): 0.14%
viability, T/C (second compound 3.16 µM, first compound 0.003 µM): 0.16%
viability, T/C (second compound 3.16 µM, first compound 0.00949 µM): 0.18%
viability, T/C (second compound 3.16 µM, first compound 0.03 µM): 0.12%
viability, T/C (second compound 3.16 µM, first compound 0.0949 µM): 0.1%
viability, T/C (second compound 3.16 µM, first compound 0.3 µM): 0.1%
viability, T/C (second compound 10 µM, first compound 0.000949 µM): 0.14%
viability, T/C (second compound 10 µM, first compound 0.003 µM): 0.13%
viability, T/C (second compound 10 µM, first compound 0.00949 µM): 0.13%
viability, T/C (second compound 10 µM, first compound 0.03 µM): 0.13%
viability, T/C (second compound 10 µM, first compound 0.0949 µM): 0.15%
viability, T/C (second compound 10 µM, first compound 0.3 µM): 0.13%
